Values quoted from earlier work in patent US6211219A, “Aminocyclohexane derivatives as 5-HT receptor agonists” (Merck Sharp & Dohme Ltd., priority 1996, dated 2001).

Experiments:
humans = details: therapeutic doses
[1] = test system: human 5-HT1Dα and 5-HT1Dβ receptor subtypes; details: cf. WO-A-91/17174, Table 1

**Q.** What does the source list for `CNS(=O)(=O)Cc1ccc2[nH]cc(CCN(C)C)c2c1` [sumatriptan]?
**A.** adverse cardiovascular events on administration to humans (humans): certain adverse cardiovascular events; discrimination between the human 5-HT1Dα and 5-HT1Dβ receptor subtypes [1]: barely discriminates
